Experimental data from patent EP0434057B1, “Indolocarbazole derivatives, processes for their preparation and their use” (GÖDECKE AKTIENGESELLSCHAFT, priority 1989, dated 1991).
Like-named read-outs stand apart in the source and are kept apart here.

Columns and labels:
[1] = molecular target: Proteinkinase C (PKC); test: Enzyme assay: inhibition of protein kinase C activated with phosphatidylserine and diacylglycerol (according to EP-A-0 255 126); assay type: biochemical
[2] = molecular target: T1, cGMP-abhängigen Proteinkinase (G-Kinase) (Bos taurus, UniProt P00516); test: Inhibition of cGMP-dependent protein kinase (literature method); assay type: biochemical; conditions: read-out: Inhibierung von Proteinkinasen (IC50, µM) G-Kinase
T1 sequence (P00516 2-671): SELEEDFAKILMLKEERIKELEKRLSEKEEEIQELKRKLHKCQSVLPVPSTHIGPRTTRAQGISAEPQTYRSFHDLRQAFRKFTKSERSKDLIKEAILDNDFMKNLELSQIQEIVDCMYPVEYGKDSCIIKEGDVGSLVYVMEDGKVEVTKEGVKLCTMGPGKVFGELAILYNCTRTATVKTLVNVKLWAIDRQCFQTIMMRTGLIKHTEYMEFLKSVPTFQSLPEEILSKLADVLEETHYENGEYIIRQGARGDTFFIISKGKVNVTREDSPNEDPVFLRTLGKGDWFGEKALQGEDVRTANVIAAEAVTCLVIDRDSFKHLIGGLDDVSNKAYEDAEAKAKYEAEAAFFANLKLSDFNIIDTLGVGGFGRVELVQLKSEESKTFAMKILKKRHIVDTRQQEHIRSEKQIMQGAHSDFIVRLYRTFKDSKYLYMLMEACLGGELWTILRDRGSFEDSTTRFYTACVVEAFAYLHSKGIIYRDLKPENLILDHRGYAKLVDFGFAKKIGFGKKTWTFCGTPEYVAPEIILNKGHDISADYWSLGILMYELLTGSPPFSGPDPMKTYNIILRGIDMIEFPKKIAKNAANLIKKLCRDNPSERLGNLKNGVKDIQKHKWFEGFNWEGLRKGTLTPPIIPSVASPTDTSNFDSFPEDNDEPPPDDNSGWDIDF
Text: (§1) Die Bestimmung der Inhibierung von A-, G-, MLC- oder T-Kinase erfolgte nach den in der Literatur beschriebenen Verfahren (Gill, G.N., Walton M., Advances in cyclic nucleotide research, Vol. 10, herausgegeben von G. Brooker und G.A. Robinson, Raven Press, New York, 1979; Eur. J. Biochem. 1986, 158, 203; Biochem. J. 1984, 218, 863; Analyt. Biochem. 1983, 135, 37; Mol. Immunol. 1989, 26, 897).

[3] = molecular target: Myosin Light Chain Kinase (MLC-Kinase) (Gallus gallus, UniProt P11799); test: Inhibition of myosin light chain kinase (literature method); assay type: biochemical; conditions: read-out: Inhibierung von Proteinkinasen (IC50, µM) MLC-Kinase
Text: as §1

[4] = molecular target: tyrosinspezifischen Kinase (T-Kinase); test: Inhibition of tyrosine-specific kinase (literature method); assay type: biochemical; conditions: read-out: Inhibierung von Proteinkinasen (IC50, µM) T-Kinase
Text: as §1

[5] = molecular target: tyrosinspezifischen Kinase (T-Kinase); conditions: read-out: Inhibierung von Proteinkinasen (IC50, µM) T-Kinase; value marked *: J. Antibiot. 1987, 40, 1782; cited from earlier work

Sequence of Myosin Light Chain Kinase (MLC-Kinase) (P11799 935-1906): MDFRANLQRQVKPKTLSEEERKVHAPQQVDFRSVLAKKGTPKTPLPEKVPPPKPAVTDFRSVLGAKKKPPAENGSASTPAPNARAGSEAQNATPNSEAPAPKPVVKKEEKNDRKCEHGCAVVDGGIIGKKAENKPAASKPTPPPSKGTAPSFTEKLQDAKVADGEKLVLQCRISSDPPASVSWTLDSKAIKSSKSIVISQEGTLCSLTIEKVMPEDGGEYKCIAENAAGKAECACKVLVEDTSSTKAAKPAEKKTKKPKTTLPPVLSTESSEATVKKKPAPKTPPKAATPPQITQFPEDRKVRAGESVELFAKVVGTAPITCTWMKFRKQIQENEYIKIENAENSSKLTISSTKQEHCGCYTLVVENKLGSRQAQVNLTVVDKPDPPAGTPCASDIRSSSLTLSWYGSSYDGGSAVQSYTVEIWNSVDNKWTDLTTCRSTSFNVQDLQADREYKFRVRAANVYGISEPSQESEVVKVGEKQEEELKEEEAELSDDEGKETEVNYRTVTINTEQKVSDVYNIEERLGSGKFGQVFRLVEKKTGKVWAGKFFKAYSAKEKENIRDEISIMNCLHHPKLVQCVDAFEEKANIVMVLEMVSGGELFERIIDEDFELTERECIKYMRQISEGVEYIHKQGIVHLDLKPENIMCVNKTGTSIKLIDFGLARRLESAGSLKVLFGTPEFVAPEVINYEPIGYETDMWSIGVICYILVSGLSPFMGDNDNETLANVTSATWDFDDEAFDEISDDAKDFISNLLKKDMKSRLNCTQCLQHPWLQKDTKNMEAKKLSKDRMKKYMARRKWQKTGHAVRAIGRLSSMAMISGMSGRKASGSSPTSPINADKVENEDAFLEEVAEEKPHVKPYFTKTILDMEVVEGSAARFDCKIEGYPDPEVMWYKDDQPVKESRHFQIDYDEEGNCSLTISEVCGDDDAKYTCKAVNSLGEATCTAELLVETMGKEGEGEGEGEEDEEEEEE

| SMILES | IC50 ([1]; PKC activated with Phosphatidylserin and Diacylglycerol, read-out: 50%ige Inhibierung bei einer Konzentration von) [µM] | IC50 ([1]; read-out: Inhibierung von Proteinkinasen (IC50, µM) PKC) [µM] | IC50 [2] [µM] | IC50 [3] [µM] | IC50 [4] [µM] | IC50 [5] [µM] |
| --- | --- | --- | --- | --- | --- | --- |
| Cn1c2ccccc2c2c3c(c4c5ccccc5n(CCC#N)c4c21)CNC3=O [Beispiel 2, 12-(2-Cyanoethyl)-6,7,12,13-tetrahydro-13-methyl-5-oxo-5H-indolo[2,3-a]pyrrolo[3,4-c]carbazol] | 0.02 | 0.02 | 6.2 | 5.8 | 25 |  |
| CN[C@@H]1C[C@H]2O[C@@](C)([C@@H]1OC)n1c3ccccc3c3c4c(c5c6ccccc6n2c5c31)C(=O)NC4 [Staurosporin] |  |  |  |  |  | 0.006 |
